# According to patent publication US20250205225A1, “METHODS OF POTENTIATING TEMOZOLOMIDE ACTIVITY AGAINST GLIOBLASTOMA CELLS” (University of Cincinnati, priority 2022, published 2025):
# Where two headings read alike, the source gives them in different places.
# Tests used:
# [1] = system: BT-142 cells; assay: Neurosphere growth inhibition; assay type: cell-based, human; settings: for median neurosphere diameter: 72 h, LTZ 40 nM, TMZ 1 μM, alone or combined
# Method: (§1) Neurosphere Growth Inhibition: Since G43 and BT-142 cells form neurospheres in culture medium, the effects of LTZ and TMZ on the growth of the neurosphere. Cells (1×10^4) were plated and 24 hours later treated with LTZ (0-2 μM), TMZ (0-100 μM) or were also determined. Cells were treated with LTZ (0.04 μM)+TMZ (0-10 μM) for 72 h cells, with DMSO (0.1%) serving as vehicle control. Neurosphere dimensions were measured using Leica Stereomicroscope in bright field setting. The effect of addition of estradiol (250 pg/ml) on the neurosphere growth was also determined.
# [2] = system: G43 cells; assay: Neurosphere growth inhibition; assay type: cell-based, human; settings: for neurosphere diameter: 72 h, LTZ 40 nM, TMZ 1 μM, alone or combined, in mm
# Method: as §1
# [3] = system: G75 cells; assay: Assessment of gamma-H2A.X (flow cytometry); assay type: cell-based, human; settings: for γ-H2AX induction (DNA damage): single agent (TMZ up to 1 μM; LTZ 500 nM and 1 μM); for LTZ-mediated induction of γ-H2AX in the presence of estradiol: estradiol (250 pg/ml)
# Method: (§2) Assessment of gamma-H2A.X: Induction of γH2A.X in G75 and G76 cells (lx 106) treated with LTZ, TMZ, and LTZ+TMZ (0-10 μM) in the presence and the absence of estradiol (250 pg/ml) was assessed using flow cytometric analysis. Based on initial assessment of the time course of γH2A.X induction, a 5 h treatment was used to capture maximal effect. Cell pellets were collected by centrifugation of the cells at 2,000×g for 5 minutes at room temperature. Cells were then washed with ice cold PBS, followed by addition of a 1:1 mixture of methanol and NP40 (300 μL) for fixation and permeabilization of the cells. Following centrifugation at 4° C. at 290×g, 100 μL of 1:250 dilution of the primary unconjugated antibody for gamma-H2A.X at room temperature were added to the cells. The cells were incubated with the primary antibody for 20 min and washed with 600 μL of 1:1 methanol and NP40 mixture. Secondary Per-CP conjugated antibody was added to the cells at a dilution of 1:1000 and incubated at room temperature in the dark for 20 minutes. Cells were washed again with 600 μL of 1:1 methanol and NP40 mixture, re-suspended in 1×PBS, and subjected to flow cytometric analysis with the excitation wavelength of 488 nm (Beckman CytoFlex flow cytometer). […] The scatter plots were analyzed using CytExpert version 2.3 to assess the percentage of cells positive for γH2A.X versus the isotype control.
# [4] = system: G76 cells; assay: Assessment of gamma-H2A.X (flow cytometry); assay type: cell-based, human; settings: for γ-H2AX induction (DNA damage): single agent (TMZ up to 1 μM; LTZ 500 nM and 1 μM); for LTZ-mediated induction of γ-H2AX in the presence of estradiol: estradiol (250 pg/ml)
# Method: as §2
# [5] = system: patient-derived GBM lines (G76, BT-142, G75, G43); assay: Cell viability assay (CyQuant LDH), all four lines; assay type: cell-based, human; settings: for IC50: Homo sapiens, BT142, 72 h
# Method: (§3) Cell viability Assay: The cytotoxic effects of TMZ, LTZ, and various combinations of the two agents were evaluated using the CyQuant™ Lactate Dehydrogenase (LDH) assay (ThermoFisher Scientific). This assay measures the release of LDH, a cytosolic enzyme, into the extracellular medium resulting from damage to the plasma membrane. Cells (1.4×10^4) were plated in 96 well plates in serum-free medium. Twenty-four hours after seeding, cells were treated with TMZ (0-100 μM), LTZ (0-2 μM), or TMZ (0-10 μM)+LTZ (0.04 μM). Dimethyl sulfoxide (0.1%) was used as a vehicle control. The effect of adding estradiol (250 pg/ml) on cell viability was also determined.
# [6] = system: G75 cells; assay: Apoptosis induction, Caspase-Glo 3/7; assay type: cell-based, human; settings: for EC50: Homo sapiens; for induction of apoptosis (caspase 3/7), in words: TMZ up to 5 μM
# Method: (§4) Apoptosis induction assay using Caspase-Glo® 3/7 system: G75 and G76 cells were employed to assess the effects of LTZ, TMZ, and LTZ+TMZ combination treatment on induction of apoptosis through caspase 3/7 activation. Cells were seeded at a density of 1.5×10^4 cells per well in a translucent walled, clear bottom, 96-well plate. Promega Caspase-Glo® 3/7 Assay system was used to assess the caspase 3/7 levels in cells treated with LTZ, TMZ, LTZ (0.04 μM)+TMZ (0-5 μM), and vehicle (0.1% DMSO). Cells were treated for 24 h after plating. Caspase-Glo® 3/7 3D substrate and Caspase-Glo® 3/7 3D buffer was mixed to form a 10 mL reaction mixture and 100 μL of the mixture was added to each well. The reaction was allowed to proceed at room temperature in the dark for 30 minutes. The luminescence readings were carried out 24 h after the treatment using Synergy™ HTX Multi-Mode Microplate Reader. The experiment was repeated in presence of estradiol to assess the effect of estradiol on caspase induction in G75 and G76 cells.
# [7] = system: G76 cells; assay: Apoptosis induction, Caspase-Glo 3/7; assay type: cell-based, human; settings: for EC50: Homo sapiens; for induction of apoptosis (caspase 3/7), in words: TMZ up to 5 μM
# Method: as §4
# [8] = system: BT-142 cells; assay: Cell viability assay (CyQuant LDH); assay type: cell-based; settings: Homo sapiens, BT142, 72 h, single agent, read-out: IC50 (cytotoxicity)
# Method: as §3
# [9] = system: G75 cells; assay: Cell viability assay (CyQuant LDH); assay type: cell-based; settings: Homo sapiens, 72 h, single agent, read-out: IC50 (cytotoxicity)
# Method: as §3
# [10] = system: G76 cells; assay: Cell viability assay (CyQuant LDH); assay type: cell-based, human; settings: 72 h, single agent, read-out: IC50 (cytotoxicity)
# Method: as §3
# [11] = system: G43 cells; assay: Cell viability assay (CyQuant LDH); assay type: cell-based, human; settings: 72 h, single agent, read-out: IC50 (cytotoxicity)
# Method: as §3
# [12] = cited from earlier work
# [13] = LTZ 40 nM alone or combined with TMZ
# [14] = single agent, Emax model, read-out: EC50 for caspase 3/7 induction
# [15] = with letrozole 40 nM, read-out: EC50 for caspase 3/7 induction by temozolomide in the presence of letrozole (40 nM)
structure (smiles),measurement,setting,value
"N#Cc1ccc(C(c2ccc(C#N)cc2)n2cncn2)cc1 [LTZ, 4,4′-((1H-1,2,4-triazol-1-yl)methylene)dibenzonitrile]",median neurosphere diameter,[1],1.1±0.077 mm
same,neurosphere growth inhibition (in words),[1]; [13],minimally impacted neurosphere growth
same,letrozole effects in neurosphere growth inhibition assay with estradiol added,[1]; estradiol (250 pg/ml) added,completely abrogated the letrozole effects
same,neurosphere diameter,[2],1.85±0.13
same,neurosphere growth inhibition (in words),[2]; [13],minimally impacted neurosphere growth
same,letrozole effects in neurosphere growth inhibition assay with estradiol added,[2]; estradiol (250 pg/ml) added,completely abrogated the letrozole effects
same,γ-H2AX induction (DNA damage),[3]; 5 h,considerably increased γ-H2AX levels
same,γ-H2AX induction (DNA damage),"[3]; 5 h, listed as Letrozole",caused DNA damage
same,LTZ-mediated induction of γ-H2AX in the presence of estradiol,[3],abrogated in the presence of estradiol
same,LTZ-mediated induction of γ-H2AX in the presence of estradiol,[3]; listed as letrozole,prevented letrozole-mediated DNA damage
same,γ-H2AX induction (DNA damage),[4]; 5 h,considerably increased γ-H2AX levels
same,γ-H2AX induction (DNA damage),"[4]; 5 h, listed as Letrozole",caused DNA damage
same,LTZ-mediated induction of γ-H2AX in the presence of estradiol,[4],abrogated in the presence of estradiol
same,LTZ-mediated induction of γ-H2AX in the presence of estradiol,[4]; listed as letrozole,prevented letrozole-mediated DNA damage
same,IC50,"[5]; single agent, read-out: IC50 (cytotoxicity), range over the cell lines",80 to 670 nM
same,letrozole effects in cell viability assay with estradiol added,[5]; estradiol (250 pg/ml) added to the culture media,completely abrogated the letrozole effects
same,EC50,[6]; [14],5.07 ± 1.1 µM
same,letrozole-mediated induction of apoptosis in the presence of estradiol,[6]; estradiol present,prevented letrozole-mediated DNA damage and induction of apoptosis
same,"induction of apoptosis (caspase 3/7), in words",[6]; single agent,very effective in inducing apoptosis in a concentration-dependent manner
same,EC50,[7]; [14],1800 ± 312 nM
same,letrozole-mediated induction of apoptosis in the presence of estradiol,[7]; estradiol present,prevented letrozole-mediated DNA damage and induction of apoptosis
same,"induction of apoptosis (caspase 3/7), in words",[7]; single agent,very effective in inducing apoptosis in a concentration-dependent manner
"Cn1nnc2c(C(N)=O)ncn2c1=O [TMZ, 4-methyl-5-oxo-2,3,4,6,8-pentazabicyclo[4.3.0]nona-2,7,9-triene-9-carboxamide]",IC50,[8],15.3 µM
same,IC50,[9],107 µM
same,IC50,[10],1310 nM
same,IC50,[10]; Homo sapiens,1300 nM
same,IC50,[11],165 µM
same,IC50,[11]; Homo sapiens,165 µM
same,median neurosphere diameter,[1],0.9±0.023 mm
same,neurosphere diameter,[2],1.6±0.085
same,"γ-H2AX induction (DNA damage), TMZ combined with LTZ","[3]; 5 h, LTZ 40 nM + TMZ 0.1 μM",significantly enhanced DNA damage by temozolomide
same,γ-H2AX induction (DNA damage),[3]; 5 h,not in G75 cells
same,"γ-H2AX induction (DNA damage), TMZ combined with LTZ","[4]; 5 h, LTZ 40 nM + TMZ 0.1 μM",significantly enhanced DNA damage by temozolomide
same,γ-H2AX induction (DNA damage),[4]; 5 h,noticeable induction of γ-H2AX
same,peak plasma levels,"[12]; doses of 100-200 mg/m^2, listed as temozolomide",25 to 50 µM
same,partitioning of the drug from plasma to the brain interstitial fluid,"[12]; intracerebral microdialysis, peritumoral",13-17%
same,brain interstitial fluid (peritumoral) concentrations,"[12]; intracerebral microdialysis, approximately",3 to 8 µM
same,IC50,"[5]; with LTZ 40 nM, read-out: TMZ IC50 in the presence of LTZ (40 nM), range for all four cell lines",160 to 690 nM
same,EC50,[6]; [14],93.8 µM
same,EC50,[6]; [15],5.1 µM
same,"induction of apoptosis (caspase 3/7), in words",[6]; single agent,not in G75 cells
same,TMZ-mediated apoptosis (caspase 3/7) with LTZ (40 nM),[6]; with LTZ 40 nM,striking increase in TMZ-mediated apoptosis
same,EC50,[7]; [14],6400 nM
same,EC50,[7]; [15],1800 nM
same,"induction of apoptosis (caspase 3/7), in words",[7]; single agent,induced apoptosis in G76 cells
same,TMZ-mediated apoptosis (caspase 3/7) with LTZ (40 nM),[7]; with LTZ 40 nM,striking increase in TMZ-mediated apoptosis
